Molecules are shown by their SMILES.

In series [1] the test system is LAD2 mast cell line. The experiment in a line: β-hexosaminidase release assay: inhibition of Compound 48/80-evoked mast cell degranulation. The conditions noted are these: for IC50: LAD2 cells; for efficacy: concentration response curves, Fig. 3, Compound 48/80 1.0 µM; for change in inhibitory activity after photoisomerization: non-irradiated vs 365 nm irradiated; for potency relative to DSCG: β-hexosaminidase release assays, Fig. 3. Type of series: cell-based, human. As to the method:
LAD2 Cell culture The human mast cell line LAD2 was kindly provided by Dr. A. Kirshenbaum (National Institute of Allergy and Infectious Diseases, Bethesda, MD). LAD2 cells were cultured in suspension at 37 °C, 95% relative humidity and 5% CO2 in StemPro-34 Serum-free medium (Invitrogen) supplemented with 2 mM L-glutamine (Sigma Aldrich), 100 IU/mL penicillin (Sigma Aldrich), 100 µg/mL streptomycin (Sigma Aldrich) and 100 ng/ml rhSCF (Invitrogen). Cells were not allowed to grow beyond a density of 5.0 x 10^5 cells/mL and fresh medium was supplied once a week.
β-Hexosaminidase Assay β-Hexosaminidase release was measured according to a previously published method.^28 In short, 50 µL of supernatant was transferred to a 96-well plate. To this 100 µL of a 2 mg/mL solution of p-nitrophenyl- N-acetyl-D-glucosaminidine in citrate buffer pH 4.5 was added. The plate was incubated at 37 °C for 1 h. The reaction was stopped by adding 100 µL of 0.4 M glycine solution and the absorbance was measured on a plate reader at a wavelength of 405 nm. Subsequently, the percentage released β-hexosaminidase was determined by comparison with the absorption of cell lysate of the same cells using the following formula: (supernatant)/(supernatant + lysate) × 100% = % Reaased β−Hexosaminidase. [formula]
Inhibitory Activity Tests LAD2 cells were suspended in HEPES buffer at a concentration of 50,000 cells/mL. 80 µL of cell suspension was transferred to a microreaction cup to which 10 µL of inhibitor solution was added. This was incubated at 37 °C for 30 min after which 10 µL of a Compound 48/80 solution was added. Next, the cell suspension was incubated for 30 min at 37 °C and the β-hexosaminidase release was assayed.
MAC and PAC seem to have an almost 100 times greater inhibitory potency than DSCG.
Next, the difference in inhibitory activity between the two photoisomers of DAC, MAC and PAC was determined. The inhibitory activity was determined for each compound at two concentrations that were on the steep part of the concentration response curve, because at these concentrations a possible difference in inhibitory activity is best detectable. LAD2 cells were incubated with either non-irradiated solutions of DAC, MAC and PAC or with solutions that were irradiated with 365 nm light prior incubation. After evoking a degranulation with Compound 48/80, β-hexosaminidase release was determined.. […] At a concentration of 10 µM the relative difference in inhibitory activity between the two forms of PAC is 25% (see Figure 4).

Series [2] can be described thus: Ratio of trans and cis photoisomers determined by RP-HPLC at the isosbestic point. Type of series: physicochemical. As to the method: Photoswitching Experiments Irradiation experiments were performed with a Spectroline ENB-280C/FE UV lamp (365 nm) and Thor Labs OSL1-EC Fiber Illuminator (white light).
The photoswitchable behavior of DAC, MAC and PAC was studied using UV-VIS spectroscopy and RP-HPLC. The trans-isomers of DAC, MAC and PAC have a characteristic absorbance maximum between 300 and 400 nm in water. This absorbance maximum decreases when the molecules are photoswitched to their cis-isomers and a new absorbance maximum appears around 430 nm (Fig. 2A-C).^25 Isosbestic points at 405 nm (DAC), 270 nm (MAC) and 270 nm (PAC) clearly illustrate the selective isomerization and reversibility of the photoswitching process. Using RP-HPLC, the ratio of photoisomers was determined for both the non-irradiated and 365 nm-irradiated forms of DAC, MAC and PAC (Table 1). Higher photostationary states were obtained when the photoswitchable inhibitors were irradiated with 365 nm light in DMSO as compared to water (Table 1). Therefore, the compounds were switched at a high concentration in DMSO and diluted in water to obtain a maximum concentration of 1% DMSO (v/v). […]
Table 1 Ratio of trans and cis isomers of the photoswitchable inhibitors under different conditions. Ratios are determined at the isosbestic point (DAC=405 nm, MAC=270 nm, PAC=270 nm) with RP-HPLC (C18, flow 1 mL/min, MeCN and H3PO4pH=3.0).

Where [3] appears, read: Homo sapiens, light or radiation study, degranulation evoked by 1.0 µM Compound 48/80, non-irradiated inhibitors, 30 min pre-incubation, n=3.

Turning to `O=C([O-])c1cc(=O)c2cc(/N=N/c3ccc4oc(C(=O)[O-])cc(=O)c4c3)ccc2o1.[Na+].[Na+]` [DAC, Sodium (E)-6,6'-(diazene-1,2-diyl)bis(4-oxo-4H-chromene-2-carboxylate)], the inhibitory activity entry in series [1] (Compound 48/80 1.0 µM) is on record as “significantly greater inhibitory activity than the original drug DSCG”. The IC50 (in general, the concentration at which inhibition is half-maximal) in series [1] (setting [3]) amounted to 272 µM. Moreover, in series [1], the efficacy result is “greater efficacy than PAC” and the “change in inhibitory activity after photoisomerization” value is on record as “a significant change in inhibitory activity after photoisomerization was not observed”.

`O=C([O-])c1cc(=O)c2c(OCC(O)COc3cccc4oc(C(=O)[O-])cc(=O)c34)cccc2o1.[Na+].[Na+]` [DSCG, DiSodiumCromoGlycate, reference compound]: the inhibitory activity entry in series [1] (Compound 48/80 1.0 µM) is reported as “did not show any inhibitory activity”; in series [1] (lower concentration of Compound 48/80 (0.1 µM), data not shown) it was “able to inhibit mast cell degranulation”. In series [1] (degranulation evoked by 1.0 µM Compound 48/80, n=3), the IC50 was > 1000 µM.

Take `O=C([O-])c1cc(=O)c2c(OCc3cccc(/N=N/c4cccc(COc5cccc6oc(C(=O)[O-])cc(=O)c56)c4)c3)cccc2o1.[Na+].[Na+]` [MAC, Sodium (E)-5,5'-(((diazene-1,2-diylbis(3,1-phenylene))bis(methylene))bis(oxy))bis(4-oxo-4H-chromene-2-carboxylate)]: the inhibitory activity entry in series [1] (Compound 48/80 1.0 µM) is reported as “significantly greater inhibitory activity than the original drug DSCG”. Also, the half-inhibitory concentration (IC50) in series [1] (setting [3]) was found to be 10 µM. Moreover, in series [1], the efficacy entry was “greater efficacy than PAC” and the “potency relative to DSCG” value is ~100 times.

In the case of `O=C([O-])c1cc(=O)c2c(OCc3ccc(/N=N/c4ccc(COc5cccc6oc(C(=O)[O-])cc(=O)c56)cc4)cc3)cccc2o1.[Na+].[Na+]` [PAC, Sodium (E)-5,5'-(((diazene-1,2-diylbis(4,1-phenylene))bis(methylene))bis(oxy))bis(4-oxo-4H-chromene-2-carboxylate)], the inhibitory activity entry in series [1] (Compound 48/80 1.0 µM) is recorded as “significantly greater inhibitory activity than the original drug DSCG”. In addition, the inhibition at 10 µM in series [1] (Homo sapiens, LAD2, light or radiation study, concentration of 10 µM, non-irradiated form more active than irradiated form, read-out: relative difference in inhibitory activity between non-irradiated and 365 nm irradiated form) worked out at 25%. This molecule yielded an IC50 in series [1] (setting [3]) of 28 µM. For the same molecule, in series [1], the “change in inhibitory activity after photoisomerization” value is listed as “A significant difference was observed” and the “potency relative to DSCG” value is recorded as ~100 times. The “cis isomer in the photo stationary state (PSS)” value in series [2] (irradiated form (365 nm)) worked out at 81%. Further, in series [2] (non-irradiated form), the “trans isomer in the photo stationary state (PSS)” value is 91%.

For the origin of these results see EP2935252B1, “NOVEL BIS-CHROMONE DERIVATIVES, METHODS FOR THEIR PREPARATION AND USES THEREOF” (Rijksuniversiteit te Groningen, priority 2012, dated 2014).
